Earlier results on 1 compound are cited in patent publication US10875826B2, “Process for the manufacture of SNAC (salcaprozate sodium)” (Emisphere Technologies, Inc., priority 2006, dated 2020).

Molecules are shown by their SMILES. Counter-ions that a name gives are not always drawn.

As for `CCCCCN(C)CCC(O)(P(=O)(O)O)P(=O)(O)O` [Ibandronate sodium, 3-(N-methyl-N-pentyl)-amino-1-hydroxypropane-1,1-diphosphonic acid, monosodium salt, monohydrate], the “solubility in organic solvents” value (organic solvents) is “practically insoluble”. Moreover, the solubility in water result (water) is reported as “freely soluble”.
